How the values were obtained:
Format in all cases: in vivo
[1] = test system: phrenic and hypoglossal nerve activity; test: Protocol 2: central neural apnea model with concurrent hypoxia, rats pretreated with retinoic acid
Description: Respiratory-related activity was recorded from the left phrenic and hypoglossal nerves in urethane-anesthetized (1.7 g/kg), vagotomized, paralyzed and mechanically ventilated rats (see Strey et al., 2012 for details). Rats are slightly hyperventilated, so a small amount of inspired CO2 was delivered to achieve target, normal PCO2. A pre-study apneic threshold test was performed. The apneic threshold was determined by lowering arterial PCO2 until phrenic respiratory activity ceased. […] Following 15 min of stable phrenic and hypoglossal burst discharge, baseline phrenic and hypoglossal burst amplitudes and blood gases were measured. Rats were then subjected to one of the following protocols:
Protocol 2) Five (5) brief central neural apneas followed by a 25 sec ventilator apnea (nadir O2 saturation ˜70%) in rats pretreated with vehicle (“control”) or retinoic acid (see below for details). The results are depicted in FIGS. 2A, 2B, and 3.
Protocol 1 tests the hypothesis that retinoic acid is sufficient to elicit inactivity-induced respiratory motor facilitation. Protocol 2 tests the hypothesis that retinoic acid administration can circumvent hypoxia-induced constraints on inactivity-induced respiratory motor facilitation. Phrenic burst amplitude was recorded for up to 60 min following treatment, and an apneic threshold test was performed at the end of the protocol.
To model a central neural apnea in anesthetized rats, inflow of CO2 was ceased by stopcock valve to reduce arterial PCO2 below the apneic threshold. Following a 10 second period of no phrenic firing activity (signaling absent breaths) the ventilator was turned off for 25 seconds to model the hypoxia that would normally be experienced in a human. At the end of 25 seconds, the ventilator was turned back on and PaCO2 was restored. This experience was repeated five times, with five minutes separating each episode.

phrenic nerve activity = test: Protocol 1: intrathecal retinoic acid injections, phrenic nerve recording in anesthetized rats; settings: three 10 μL intrathecal injections, 50 μM each, 60 min after final injection, vs vehicle control, FIGS. 1A, 1B
Description: Respiratory-related activity was recorded from the left phrenic and hypoglossal nerves in urethane-anesthetized (1.7 g/kg), vagotomized, paralyzed and mechanically ventilated rats (see Strey et al., 2012 for details). Rats are slightly hyperventilated, so a small amount of inspired CO2 was delivered to achieve target, normal PCO2. A pre-study apneic threshold test was performed. The apneic threshold was determined by lowering arterial PCO2 until phrenic respiratory activity ceased. […] Following 15 min of stable phrenic and hypoglossal burst discharge, baseline phrenic and hypoglossal burst amplitudes and blood gases were measured. Rats were then subjected to one of the following protocols: Protocol 1) Three (3) 10 μL intrathecal injections (50 μM each) of retinoic acid or three (3) 10 μL of vehicle (aCSF in 10% DMSO). […] Protocol 1 tests the hypothesis that retinoic acid is sufficient to elicit inactivity-induced respiratory motor facilitation. […] Phrenic burst amplitude was recorded for up to 60 min following treatment, and an apneic threshold test was performed at the end of the protocol.

[2] = test system: apnea and hypopnea events; test: Chronic intermittent hypoxia (CIH) model, diaphragm EMG recording of apneic and hypoapneic events; settings: rats; intraperitoneal 500 mcg/kg daily during 7 day CIH plus day 8 dose; FIG. 5
Description: Briefly, the experimental and control animals were placed in adjoining, identical chambers that were maintained at room temperature and were large enough to allow unimpeded movement. The fraction of inspired oxygen in each chamber was regulated by microprocessor-controlled miniature solenoids attached to each chamber by high-pressure tubing. For the CIH protocol, the chamber was flushed with 100% nitrogen for 30 sec followed by 30 sec of 100% O2 at a low flow rate. The time course of change in the fraction of inspired oxygen for the experimental chamber was determined using an oxygen analyzer (Sensormedics, Milan, Italy): a decline to a nadir of 6.5 to 7% oxygen, remaining at that level for 5 to 7 sec, and then gradually increasing to 21% over the next 30 sec during which oxygen flowed into the chamber. This cycle was repeated each minute over 8 daytime hours (8 to 9 am to 4 to 5 pm) for 7 days. Control rats were exposed to the same sequence of events as experimental rats, with the exception that room air was used instead of nitrogen and oxygen. […] The experimental animals were administered intra peritoneal trans-retinoic acid (500 mcg/kg) daily throughout the 7 day CIH exposure with an additional dose given the morning of diaphragm electromyography (EMG) recordings (day 8; total of 8 injections) […] and hypoapneic events were recorded via conventional diaphragm EMG measurements.

For `CC1=C(/C=C/C(C)=C/C=C/C(C)=C/C(=O)O)C(C)(C)CCC1` [retinoic acid, all-trans retinoic acid], the CO2 apneic threshold ([1]; anesthetized rats, given before central neural apnea, 60 min post injection, vs control, FIG. 3) was “reduced the CO2 apneic threshold relative to a control groups”, the phrenic burst amplitude ([1]; anesthetized rats, intrathecal 10 μL, 50 μM before central neural apneas with hypoxia, 60 min after, FIG. 2A) was “significantly higher than pre-stimulation levels” and the hypoglossal burst amplitude ([1]; anesthetized rats, intrathecal 10 μL, 50 μM before central neural apneas with hypoxia, 60 min after, FIG. 2B) was “significantly higher than pre-stimulation levels”. The “enhanced phrenic motor output following inactivity with concurrent hypoxia” value ([1]; pretreatment, intermittent inactivity with concurrent hypoxia, FIG. 4C) was “rescues then enhanced phrenic motor output”, the “phrenic nerve activity (phrenic motor output) as a percentage of baseline activity” value (phrenic nerve activity) was “persistently increases phrenic motor output” and the “phrenic nerve activity (phrenic motor output) as a percentage of baseline activity” value (phrenic nerve activity; listed as trans-retinoic acid) was “significantly higher than control group”. For the same compound, the “number of apnea and hypopnea events (diaphragm EMG)” value [2] was “reduces the number of apnea and hypopnea events”.
